From publication PMC9781916, “Antipsychotic- and Anxiolytic-like Properties of a Multimodal Compound JJGW08 in Rodents” (International Journal of Molecular Sciences, 2022)

What was measured:
human D2 receptor = target: T1, human D2 receptor (Homo sapiens, UniProt P14416); test: Functional assay (aequorin, calcium mobilization) in CHO-K1 cells, D2 receptor; type: cell-based
T1 construct: host or cells: CHO-K1
Protocol: Tested and reference compounds were dissolved in dimethyl sulfoxide (DMSO) at a concentration of 10 mM. Serial dilutions were prepared in a 96-well microplate in assay buffer, and 8 to 10 concentrations were tested. […] The assay was executed according to the previously described protocol [45]. After thawing, cells were transferred to assay buffer (DMEM/HAM’s F12 with 0.1% protease-free BSA) and centrifuged. The cell pellet was resuspended in assay buffer, and coelenterazine h was added at final concentrations of 5 µM. The cell suspension was incubated at 16 °C (or 21 °C), protected from light with constant agitation for 16 h (or 4 h), and then diluted with assay buffer to the concentration of 100,000 cells/mL (or 250,000 cells/mL). After 1 h of incubation, 50 µL of the cell’s suspension was dispensed using automatic injectors built into the radiometric and luminescence plate counter MicroBeta2 LumiJET (PerkinElmer, Waltham, NA, USA) into white opaque 96-well microplates preloaded with test compounds. Immediate light emission generated following calcium mobilization was recorded for 30 s. In antagonist mode, after 25–30 min of incubation, the reference agonist was added to the above assay mix, and light emission was re-recorded. […] IC50 and EC50 values were calculated.

mice [1] = test: Catalepsy bar test in mice; type: in vivo
Protocol: Catalepsy was assessed using the bar method described by Ueki et al. with minor modifications [48, 49]. The front paws of the mice were placed on a cylindrical metal bar located 4 cm above the tabletop’s surface, while the hind paws remained on the tabletop. The time in which the animal held both paws on the bar was measured at 30, 60, and 120 min after the administration of the tested compound, with a maximum measurement time of 60 s. Each of the measurements consisted of placing the animal’s paws on the bar three times unless the mouse was on it for 60 s; then, no further trial was performed.
The minimum cataleptogenic dose was defined as the lowest dose inducing a mean catalepsy score of ≥1 at 30, 60, or 120 min post-treatment. The tested compound was administered ip at the dose range of 5–20 mg/kg.

mice [2] = test: Four-plate test in mice; type: in vivo
Protocol: Figure 2 The effect of JJGW08 on the number of punished crossings in the four-plate test. Mice were placed in the apparatus, and after a 15 s adaptation period, each mouse crossing from one plate to another was punished with an electric shock. JJGW08 was administered intraperitoneally (ip) 30 min before the test. The control group received 0.9% NaCl solution (ip). Values are expressed as means ± SD, n = 8–10 mice per group. Statistical analysis: one-way ANOVA (Newman–Keuls post hoc), ** p < 0.01.
The four-plate test was performed on mice according to the previously described method. Mice were placed individually in the four-plate apparatus (Panlab, Barcelona, Spain). After a 15 s habituation period, each mouse that crossed from one plate to another (two limbs on one plate, two on another) was punished by an electric shock (0.8 mA, 0.5 s). The number of punished crossings was calculated during the 60 s of the test.

mice [3] = test: Marble burying test in mice; type: in vivo
Protocol: Figure 3 The effect of JJGW08 and aripiprazole on the number of buried marbles by mice. Mice were placed individually in cages with a 5 cm bedding layer, where 20 glass balls were placed. The number of buried marbles after 30 min of the test was counted. JJGW08 was administered intraperitoneally (ip) 30 min before the test. The control group received 0.9% NaCl solution (ip) or 1% Tween (ip) for aripiprazole. Values are expressed as means ± SD in the case of one-way ANOVA (aripiprazole) or median with interquartile range in the case of Kruskal–Wallis test (JJGW08), n = 8–10 mice per group. Statistical analysis: one-way ANOVA (Newman–Keuls post hoc), and Kruskal–Wallis test (Dunn post hoc), * p < 0.05, ** p < 0.01, *** p < 0.001.
The test was conducted according to the method described by Broekkamp et al. with minor modifications. Mice were placed individually in plastic cages, identical to their home cages, that contained a layer of bedding and 20 glass balls (1.6 cm in diameter) arranged in a pattern 4 × 5. After 30 min of the experiment, the mice were removed from the cages, and the number of balls buried to at least 2/3 of their size was counted.

mice [4] = test: Spontaneous locomotor activity in mice; type: in vivo
Protocol: The locomotor activity of mice was measured as previously described using the same apparatus as described in paragraph 4.5. Each mouse was placed individually in a cage for a 30 min habituation period (directly after administration of the studied compound), and then the number of photobeams crossings was recorded (ambulation). Locomotor activity was evaluated every 1 or 5 min for 1–60 min depending on the observation period in behavioral tests (60 min for the hyperlocomotion test, 30 min for the marble burying test, and 1 min for the four-plate test). The cages were disinfected with an odorless disinfection solution after each mouse.

rats = test: Open field test after MK-801 administration in rats (MK-801-induced hyperlocomotion); type: in vivo; settings: doses 1–30 mg/kg ip, MK-801 0.3 mg/kg ip
Protocol: Figure 4 The effect of JJGW08 and clozapine on MK-801-induced hyperlocomotion in rats. After the habituation period (30 min, 24 h before the test), locomotor activity was measured individually for each animal in the special apparatus. The walked distance (cm) was monitored at 10-min intervals for 30 min, using a computerized system that tracked the animals’ movement and behavior. JJGW08 and clozapine were administered intraperitoneally (ip) 30 or 60 min before the test, respectively, while MK-801 (0.3 mg/kg) was administered ip 15 min before the start of the experiment. The control group received 0.9% NaCl solution (ip) (or 1% Tween (ip) for clozapine) and MK-801 (0.3 mg/kg, ip). Values are expressed as mean ± SD, n = 7–8 rats per group. Statistical analysis: one-way ANOVA (Newman–Keuls post hoc) * p < 0.05, ** p < 0.01, *** p < 0.001.
The experiment was evaluated according to the method described earlier. It was performed in a soundproof chamber with a 30-min habituation period 24 h before the procedure. The open field apparatus consisted of four black, octagonal, stainless steel arenas (diameter: 80 cm) with 30 cm high walls. Each arena was divided into a peripheral and central sector. The peripheral sector was defined as the region within 20 cm from the walls. The approximate light intensity was 15 lx in the central point of the arena and 4 lx close to its walls.
Individual rats were placed in the central part of the open field and allowed to explore the whole arena for 30 min under dim light (approximately 10 lx) and continuous white noise (65 dB). Forward locomotion (cm/30 min) was registered in 10-min intervals for 30 min and analyzed with the aid of a computerized video tracking system (Videomot, TSE, Bad Homburg, Germany). The arenas were cleaned between tests with 20% (v/v) alcohol and allowed to dry.
The tested compound was administered ip 30 min before the experiment at the dose range of 0.3–30.0 mg/kg, and MK-801 (0.3 mg/kg,) was administered ip 15 min before the procedure. […]

D2 receptors = test system: D2 receptors; parameters: method as in doi:10.1016/j.molstruc.2022.134585; settings: cited from earlier work
5-HT7 receptors = test system: 5-HT7 receptors; parameters: method as in doi:10.1016/j.molstruc.2022.134585; settings: cited from earlier work
[5] = D2, antagonist mode, 30 nM apomorphine as reference agonist

T1 sequence (P14416 whole entry): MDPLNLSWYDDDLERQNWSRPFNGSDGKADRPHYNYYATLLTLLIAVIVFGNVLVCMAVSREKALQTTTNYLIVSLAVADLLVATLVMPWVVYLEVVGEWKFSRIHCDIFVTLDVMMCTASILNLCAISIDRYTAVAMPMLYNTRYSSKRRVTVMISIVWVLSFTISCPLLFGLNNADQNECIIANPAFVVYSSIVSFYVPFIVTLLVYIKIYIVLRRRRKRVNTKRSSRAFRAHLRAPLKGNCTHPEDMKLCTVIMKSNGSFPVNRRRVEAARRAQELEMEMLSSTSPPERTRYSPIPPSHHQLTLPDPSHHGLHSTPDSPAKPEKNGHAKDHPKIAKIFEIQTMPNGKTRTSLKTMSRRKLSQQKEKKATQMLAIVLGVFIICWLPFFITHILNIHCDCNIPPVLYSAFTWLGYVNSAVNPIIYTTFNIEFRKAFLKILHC

## COc1ccccc1N1CCN(CCCCCOc2ccccc2C(N)=O)CC1.Cl [JJGW08, 2-{5-[4-(2-metoksyfenylo)piperazin-1-ylo]pentoxy}benzamide hydrochloride]
Human D2 receptor; D2, agonist mode
  Agonist Mode Emax%: 13%
Human D2 receptor; [5]
  Antagonist Mode Emax%: 0%
  Antagonist Mode pIC50 ± Range: 7.9 ± 0.0
Human D2 receptor; D2, antagonist mode, Cheng equation
  Kb: 2 nM
Human D2 receptor; D2 functional assay
  antagonistic properties (in words): strong antagonistic properties
Mice [1]; 5 mg/kg ip, 30 min
  Mean Score (catalepsy): 0.0
Mice [1]; 5 mg/kg ip, 60 min
  Mean Score (catalepsy): 0.2
Mice [1]; 5 mg/kg ip, 120 min
  Mean Score (catalepsy): 0.2
Mice [1]; 10 mg/kg ip, 30 min
  Mean Score (catalepsy): 0.7
Mice [1]; 10 mg/kg ip, 60 min
  Mean Score (catalepsy): 0.9
Mice [1]; 10 mg/kg ip, 120 min
  Mean Score (catalepsy): 1.4
Mice [1]; 10 mg/kg vs. 0.15 mg/kg
  cataleptogenic dose relative to the lowest antipsychotic-like dose: 67 fold
Mice [1]; 20 mg/kg ip, 30 min
  Mean Score (catalepsy): 2.1
Mice [1]; 20 mg/kg ip, 60 min
  Mean Score (catalepsy): 2.1
Mice [1]; 20 mg/kg ip, 120 min
  Mean Score (catalepsy): 1.5
Mice [1]; ip, lowest dose with mean catalepsy score ≥1 at 30, 60 or 120 min
  minimum (lowest) cataleptogenic dose: 10 mg/kg
Mice [2]; 0.3 mg/kg ip
  increase in the number of punished crossings: 54%
Mice [2]; 0.625 mg/kg ip
  increase in the number of punished crossings: 49%
Mice [3]; 1.25 mg/kg ip
  reduction of the number of buried marbles: 65%
Mice [3]; 2.5 mg/kg ip
  reduction of the number of buried marbles: 84%
Mice [4]; 0.15 mg/kg ip, 1 min session
  Number of Crossings: 38
Mice [4]; 0.15 mg/kg ip, 30 min session
  Number of Crossings: 547
Mice [4]; 0.15 mg/kg ip, 60 min session
  Number of Crossings: 1346
Mice [4]; 0.3 mg/kg ip, 1 min session
  Number of Crossings: 46
Mice [4]; 0.3 mg/kg ip, 30 min session
  Number of Crossings: 1027
Mice [4]; 0.3 mg/kg ip, 60 min session
  Number of Crossings: 1588
Mice [4]; 0.625 mg/kg ip, 1 min session
  Number of Crossings: 27
Mice [4]; 0.625 mg/kg ip, 30 min session
  Number of Crossings: 634
Mice [4]; 0.625 mg/kg ip, 60 min session
  Number of Crossings: 1671
Mice [4]; 1.25 mg/kg ip, 1 min session
  Number of Crossings: 22
Mice [4]; 1.25 mg/kg ip, 30 min session
  Number of Crossings: 1181
Mice [4]; 1.25 mg/kg ip, 60 min session
  Number of Crossings: 1769
Mice [4]; 2.5 mg/kg ip, 1 min session
  Number of Crossings: 19
Mice [4]; 2.5 mg/kg ip, 30 min session
  Number of Crossings: 437
Mice [4]; 2.5 mg/kg ip, 60 min session
  Number of Crossings: 1450
Mice [4]; 0.15–2.5 mg/kg ip, 60-min and 30-min sessions
  effect on locomotor activity (in words): did not affect locomotor activity
rats
  reduction of MK-801-induced hyperlocomotion in the open field: 36–82%
D2 receptors
  affinity (in words): high affinity
5-HT7 receptors
  affinity (in words): moderate affinity
